{
  "source": "patent US12642803B2",
  "about": "“Pharmaceutical aqueous formulation comprising 1-(4-{[4-(dimethylamino)piperidin-1-yl]carbonyl}phenyl)-3-[4-(4,6-dimorpholin-4-yl-1,3,5-triazin-2-yl)phenyljurea” (PFIZER INC., priority 2017, dated 2026)",
  "key": {"[1]": {"assay": "Visual analysis (European Pharmacopoeia Method 2.9.20) and OPM analysis for crystallites or particles (clear solution)", "format": "physicochemical", "conditions": "for Solution concentration at which the necessary clear solutions are not obtained, or are not obtained consistently: pH required for intravenous administration", "text": "A “clear solution” is defined herein as a visually clear solution, which may bear a solution opalescence, that is essentially free from any visible particulates that can be observed on a visual inspection. Generally, if any particulate matter is observed, the formulation is not suitable for intravenous administration and should not be utilised as occlusion of blood vessels may occur. Accordingly, in view of the qualitative nature of the visual test, the term “essentially free from any visible particulates” is usually applied when no visible particulate matter is observed.\nThe visual inspection can be conducted in accordance with the method defined in European Pharmacopoeia Method 2.9.20 entitled “Particulate contamination: visible particles”. This method determines particulate contamination of injections and infusions by extraneous, mobile, undissolved particles, other than gas bubbles, that may be present in the solutions. […]\nA sample of the formulation was analysed in accordance with the visual method defined in European Pharmacopoeia Method 2.9.20 (using a Verivide (trade mark) light cabinet and a light meter reading of 3250 lux against a matt black panel and a white panel) to determine if crystallites or particles were present. […]\nA sample of the formulation was placed on a clean glass microscopy slide and covered with a glass cover slip. It was then analysed by OPM using both non-polarised and cross-polarised light under a Nikon LV 100POL (trade mark) microscope with a 10× magnification lens and a 10× magnification eyepiece to determine if crystallites or particles were present. The image was recorded using a DFK 23UP031 TIS USB 3.0 CMOS (trade mark) Colour Industrial Camera 5MP 1/2,5″ and image capture software. […]\nThese Examples were analysed by the visual method defined in European Pharmacopoeia Method 2.9.20 and the OPM method both as described in Example 1.\nThe Examples shown in the following Table were analysed by the visual method defined in European Pharmacopoeia Method 2.9.20 and the OPM method both as described in Example 1. […]"}, "[2]": {"assay": "Water solubility of the free base", "format": "physicochemical", "conditions": "for an aqueous solution formulation for intravenous or parenteral administration at the therapeutic dosage levels required", "description": "(§1) 1-(4-{[4-(Dimethylamino)piperidin-1-yl]carbonyl}phenyl)-3-[4-(4,6-dimorpholin-4-yl-1,3,5-triazin-2-yl)phenyl]urea may be prepared in crystalline form and is chemically and physically stable at 25° C. and 60% Relative Humidity (RH) for up to 3 years in this form."}, "[3]": {"assay": "Chemical and physical storage stability of the crystalline free base", "format": "physicochemical", "conditions": "crystalline form, 25° C. and 60% Relative Humidity (RH)", "description": "as §1"}, "[4]": {"conditions": "only with lactic acid and orthophosphoric acid, of ten acids tested; WO2016/097949; cited from earlier work"}},
  "data": [
    {"molecule": "CN(C)C1CCN(C(=O)c2ccc(NC(=O)Nc3ccc(-c4nc(N5CCOCC5)nc(N5CCOCC5)n4)cc3)cc2)CC1", "note": "[1-(4-{[4-(Dimethylamino)piperidin-1-yl]carbonyl}phenyl)-3-[4-(4,6-dimorpholin-4-yl-1,3,5-triazin-2-yl)phenyl]urea]", "values": [
      {"measurement": "Solution concentration at which the necessary clear solutions are not obtained, or are not obtained consistently", "setting": "[1]; formulations comprising ethanesulphonic acid", "value": "≥ 35", "unit": "mg/mL"},
      {"measurement": "Solution concentration at which the necessary clear solutions are not obtained, or are not obtained consistently", "setting": "[1]; formulations comprising methanesulphonic acid", "value": "≥ 35", "unit": "mg/mL"},
      {"measurement": "Solution concentration achieved as clear, essentially particle-free solution", "setting": "[1]; use of methanesulphonic acid and ethanesulphonic acid, free base concentration", "value": "up to 30 mg/ml"},
      {"measurement": "Water solubility", "setting": "[2]", "value": "insufficiently water soluble"},
      {"measurement": "Time for which chemically and physically stable", "setting": "[3]", "value": "up to 3 years"},
      {"measurement": "Concentration achieved as a clear solution", "setting": "[4]", "value": "≥ 3000", "unit": "µg/mL"}
    ]}
  ]
}
